# Measured values as given in patent publication US20250206845A1, “PHARMACEUTICAL COMPOSITION INCLUDING RHO-KINASE INHIBITOR FOR PREVENTION OR TREATMENT OF CUTANEOUS FIBROTIC DISORDERS SUCH AS KELOID, ETC. AND USE THEREOF” (Seoul National University R&DB Foundation, priority 2022, published 2025).
# Read-outs that look alike come from different tables or passages of the source.
# Key:
# keloid fibroblasts [1] = test: Cell viability / proliferation of keloid fibroblasts (CCK-8); type: cell-based, human; conditions: increasing dose of Y-27632, 24 hours, FIG. 3A
# Experimental: Immunofluorescence confocal microscopy experiments were performed with antibodies to F-actin (green) and vinculin (orange). Scale bar=50 μm. Quantification of fluorescence intensity was shown. The experiments were performed in triplicate. Student's t test was used for all analyses. * P<0.05. […] Briefly, human skin and keloid tissues were collected from five patients who underwent surgical resection at Seoul National University Boramae Hospital. The samples were rinsed three times with Dulbecco's phosphate-buffered saline containing 1% antibiotic-antifungal solution (A/A; Welgene, Gyeongsangbuk-do, Korea) and cut into 3 mm thick pieces. The tissues were then placed in 5 mg/ml dispase solution (Roche, Basel, Switzerland) for 4 hours at 37° C. The dermis and epidermis were separated, chopped into 1-mm thick pieces, and digested in 3 mg/ml collagenase type I (Thermo Fisher, MA, USA) to obtain a single cell suspension. The cells were cultured in Dulbecco's modified Eagle's medium (DMEM; Biowest, Nuaillé, France) containing 10% fetal bovine serum (FBS; Biowest, France) and 1% Antibiotic/Antimycotic Solution (Welgene Inc., Korea) in a humidified incubator at 37° C. and 5% CO2. […] The effect of stretch stimulation on the proliferation of normal and keloid fibroblasts was evaluated by the CCK-8 assay. […] The experiments were performed in triplicate and the data are expressed as the mean±SD.
# F-actin = F-actin immunofluorescence in keloid fibroblasts; type: cell-based, human
# Experimental: Immunofluorescence confocal microscopy experiments were performed with antibodies to F-actin (green) and vinculin (orange). Scale bar=50 μm. Quantification of fluorescence intensity was shown. The experiments were performed in triplicate. Student's t test was used for all analyses. * P<0.05. […] Scale bar=50 μm. The results were expressed as the mean with SD (n=5). The experiments were performed in triplicate. Student's t test was used for all analyses. * P<0.05. […] Cells were washed twice with cold PBS and fixed overnight at 4° C. with 4% (w/v) paraformaldehyde. […] The cells were exposed to blocking buffer (1% BSA/PBS) for 30 min at room temperature and then exposed to Alexa Fluor 488-conjugated phalloidin (#A12379, Invitrogen, USA) in 1% BSA/0.1% Triton X-100/PBS for 1 hour at room temperature. After three washing steps, the cells were mounted with DAPI mounting medium, sealed with coverslip, and examined using a confocal laser scanning microscope (LSM 900; Carl Zeiss, NY, USA).
# [2] = tested on: phosphorylated cofilin and myosin light chain (MLC); test: Western blotting of p-MLC/MLC and p-cofilin/cofilin in keloid fibroblasts; type: cell-based, human; conditions: keloid fibroblasts with or without stretch, Y-27632, FIG. 4C
# Experimental: Scale bar=50 μm. The results were expressed as the mean with SD (n=5). The experiments were performed in triplicate. Student's t test was used for all analyses. * P<0.05. […] To obtain whole-cell extracts, cells were lysed with Pierce Cell Lysis Buffer (Thermo Fisher, MA, USA) containing phosphatase inhibitors and protease inhibitors. Protein extracts (30 μg) were analyzed by sodium dodecyl sulfate polyacrylamide gel electrophoresis (SDS-PAGE) and transferred to a polyvinylidene difluoride membrane. […] GAPDH was used as a loading control for Western blotting analysis.
# [3] = tested on: COL1A1, COL3A1, Fibronectin, α-SMA, CTGF, PCNA mRNA; test: qRT-PCR of pro-fibrotic genes in keloid fibroblasts; type: cell-based, human; conditions: mechanically stimulated keloid fibroblasts, FIG. 5A
# Experimental: Scale bar=200 μm. The results were expressed as the mean with SD (n=5). Student's t test was used for all analyses. * P<0.05. […] Total RNA was extracted using TRIzol reagent (Thermo Fisher Scientific, MA, USA). RNA (1000 ng) was subjected to cDNA synthesis using oligo (dT) random primers (Integrated DNA Technologies, IA, US) and AccuPower RT PreMix (Bioneer, South Korea) according to the following procedure: qRT-PCR was performed with PowerUp SYBR green master mix on a StepOnePlus real-time PCR System (Applied Biosystems, CA, USA) at 42° C. for 60 min and 95° C. for 5 min. The mRNA levels of each gene were normalized to the mRNA levels of GAPDH. The PCR steps are composed of an initial denaturation step at 94° C. for 5 min; at 94° C. for 1 min (denaturation), 55° C. for 1 min (annealing), and 72° C. for 2 min (extension); and a final extension step at 72° C. for 7 min. […] Relative expression was calculated using the 2-ΔΔCt method.
# keloid fibroblasts [4] = test: Transwell migration analysis of keloid fibroblasts; type: cell-based, human; conditions: under mechanical force (stretch 24 hours), 10 μM Y-27632, transwell 24 hours, FIG. 5B
# Experimental: Scale bar=200 μm. The results were expressed as the mean with SD (n=5). Student's t test was used for all analyses. * P<0.05.
# For migration analysis using Transwell […] pore-size polycarbonate membrane (#3422, Corning Inc., ME, USA). […] As a control, static cells were cultured in a strex stretch chamber under the same conditions without stretch stimulation. Keloid cells were then harvested and counted, and 2×10^4 cells were resuspended in 150 μL of medium containing 1% FBS and reintroduced into the upper compartment of the insert. The lower compartment was filled with 500 μL of medium containing 2% FBS as a chemoattractant. The cells were allowed to migrate for 24 hours at 37° C. The cells were fixed in 4% PFA, permeabilized with 0.1% Triton X-100 in PBS for 10 min, and stained with hematoxylin for 10 min at room temperature. After washing with PBS, non-migrated cells were removed from the upper insert by a cotton swab. The polycarbonate membrane was removed from the insert and mounted on a slide. Fields of migrated cells were captured with an inverted microscope (Leica Microsystems GmbH, Wetzlar, Germany). The migration area was evaluated as a purple area extracted from each image, and analyzed with Image J software as a percentage of the migrated area.
# YAP and MRTF = test: Nuclear translocation of YAP and MRTF during stretching (subcellular fractionation, Western blotting); type: cell-based, human; conditions: stretched keloid fibroblasts, FIG. 6
# Description: A is a Western blotting analysis of nuclear translocation of YAP and MRTF in the subcellular fraction of keloid fibroblasts subjected to or not subjected to mechanical stretching with or without Y-27632. B is a quantitative analysis of cytoplasmic and nuclear expression levels of MRTF and YAP. The results were expressed as the mean with SD (n=5). Student's t test was used for all analyses. *P<0.05. Nuclear/cytoplasmic extracts were separated separately using NE-Per Nuclear and Cytoplamic Extractons Reagents (#78833, Thermo Scientific, MA, USA) according to the manufacturer's instructions. Subcellular fractionation lysis was analyzed by Western blotting analysis for YAP (#5157, Cell Signaling, MA, USA), MRTF (sc-47724, Santa Cruz, CA, USA) including GADPH ([…], Santa Cruz, CA, USA) and Lamin B (#12586, Cell Signaling, MA, USA) as internal markers for cytoplasmic and nuclear fractions, respectively. The quantification was performed with Image J software.
# [5] = tested on: keloid nodules formed by human keloid fibroblasts; test: Patient-derived keloid xenograft SCID mouse model of nodule formation (nodule volume and weight); type: in vivo; conditions: SCID mice, Y-27632 20 mg/kg injected into nodule
# Experimental: Approval for animal experiments was obtained from the Animal Experiment Performance Committee of Seoul National University Boramae Hospital (Approval No.: 2019-0031). Male NOD.CB17-Prkdc scid/J (SCID) mice (5 weeks old, weight: 22.58±0.91 g) were purchased from Charles River Japan (Yokohama, Japan). All animal experimental procedures were performed in accordance with the guidelines of the Animal Experiment Research Committee of Seoul Boramae Hospital. All experiments were performed under aseptic conditions. Under anesthesia using isoflurane, the dorsal furs of seven SCID mice were removed, the midline was marked, and then a 26-gauge needle was used in a 1-ml syringe (Becton, Dickinson and Company, Franklin Lakes, NJ, USA). These cells were obtained from seven patients who underwent keloid resection at Seoul National University Boramae Hospital. The cells were injected approximately 1 cm apart from the left and right sides of the most prominent area of the mouse's back. […] The nodules were measured every 2 to 3 days with calipers, and nodule volume was calculated using the following equation: Nodule volume=½×A×B2, where A=length in millimeters, B=width in millimeters. To collect the nodules 14 days after keloid fibroblast injection, the surrounding skin was carefully separated using forceps and a blade, and only the nodules were collected and weighed.
# [6] = tested on: keloid nodules formed by human keloid fibroblasts; test: In vivo histological and immunohistochemical analysis of keloid nodules; set-up: species or system SCID mice
# Experimental: A isolates nodules from mice treated with DMSO or Y-27632. […] Original magnification: ×200, scale bar=100 μm.
# Nodules were harvested 14 days after initial cell injection, fixed in 4% paraformaldehyde at 4° C. for 24 hours, washed with water for at least 4 hours, and finally embedded in paraffin. Paraffin sections (4 μm thick) were stained with hematoxylin and eosin (H&E, ab245880, Abcam, Cambridge, UK) and MT (TRM-2, ScyTek, Logan, Utah, USA) according to the manufacturer's instructions. The cytoplasm (400× magnification) of H&E-stained sections and the collagen density (400× magnification) of MT-stained sections were checked for each section using an Olympus BX53 microscope (Olympus Corporation, Shinjuku, Japan). Screenshots of three fine fields (right, center, and left) were acquired. The number of inflammatory cells per unit area (0.1 mm^2) was calculated using Olympus cellSens standard imaging software. The optical density of collagen was measured using ImageJ Immunohistochemical staining by avidin-biotin complex method. Briefly, paraformaldehyde (4%) fixed specimens were embedded in paraffin and cut into 4 μm thickness. The sections were dried at 56° C. for 1 hour, and then subjected to deparaffinization and rehydration steps with xylene. The sections were then cultured with trypsin enzyme antigen retrieval solution (ab970, Abcam, Cambridge, UK) at 37° C. for 30 min. Overnight culture was performed with primary antibodies at 4° C. After three washes with Tris-buffered saline containing 0.025% Triton-100, the second antibody was applied to each section at room temperature for 30 min. Images were taken in three fields (right, center, and left) with an Olympus BX53 microscope and analyzed with Image J software.
# ROCK1 = conditions: FIG. 4A
# Experimental: Mechanical stretching was applied to keloid fibroblasts using a mechanical stretching device (STB-1400; Strex Inc., Osaka, Japan). Briefly, the keloid fibroblasts were seeded at a density of 1.2×10^5 cells in a strex stretch chamber (STB-CH-10 Strex Inc., Osaka, Japan) pre-coated with 20 μg/ml rat tail type I collagen (C7661, Sigma Aldrich). After allowing attachment for overnight incubation, the strex stretch chamber was moved to the stretching device and mounted on a hook. The flexible silicone chamber was exposed to stretching with a length of 0-20% tension at a frequency of 10 cycles/min (0.166 Hz) for 24 hours. […] Cells of the control group were cultured in the same type of chamber in an incubator.
# ROCK1 kinase activity was analyzed with a ROCK activity assay kit (Cell Biolabs, CA, USA) according to the manufacturer's instructions. The ROCK activity assay kit is an enzyme immunoassay designed to detect the phosphorylation level of myosin phosphatase target subunit 1 at Thr696 by ROCK. […] The cells were harvested, trypsinized, and washed twice with PBS. […] Protein concentrations were determined using the Pierce BCA Quantification Protein Kit (Thermo Fisher Scientific, MA, USA). […] The absorbance was read at 450 nm with a SpectraMax Plus 384 microplate reader (Molecular Devices, San Jose, CA, USA).
structure (smiles),measurement,setting,value
C[C@@H](N)[C@H]1CC[C@H](C(=O)Nc2ccncc2)CC1 [Y-27632],inhibitory effect on keloid fibroblast proliferation,keloid fibroblasts [1],No inhibitory effect
same,disruption of F-actin cytoskeletal structure,"F-actin; at 25 and 50 μM, 24 h, keloid fibroblasts",dramatic disruption
same,cellular F-actin network,"F-actin; fibroblasts with or without mechanical stretching exposed to Y-27632, FIG. 4B",significantly disrupted
same,F-actin fiber formation in keloid fibroblasts,"F-actin; increasing doses, 24 h, FIG. 3B",tightly regulated by Y-27632 treatment in a dose-dependent manner
same,"expression of phosphorylated proteins (p-cofilin, p-MLC)",[2],greatest decrease
same,"mRNA levels of fibrotic genes (COL1A1, COL3A1, Fibronectin, α-SMA, CTGF, PCNA)",[3],decrease
same,migration of keloid fibroblasts,keloid fibroblasts [4],partially inhibited
same,nuclear import of YAP and MRTF,YAP and MRTF,inhibiting nuclear import
same,weight of keloid nodules compared to the control group,[5],significantly reduced
same,mean volume of keloid nodules at the time of keloid nodule excision,[5]; DMSO control 21.27±13.98,17.21±13.49 MM^3
same,average weight of keloid nodules,"[5]; control 7.61±3.16, FIG. 7A",4.56±3.50 Mg
same,inflammatory cells in the keloid region,"[6]; H&E staining, compared to the control group",reduced inflammatory cells
same,deposition of collagen bundles (MT staining),[6]; control group compared to the Y-27632-treated group,higher deposition of collagen bundles in the control group
same,"protein expression of VEGF, SMA, vimentin, collagen type I, and collagen type III","[6]; immunohistochemistry of nodule tissue, compared to the DMSO-treated group, FIG. 7B",significantly reduced
same,decrease in the activity of ROCK1,"ROCK1; keloid fibroblasts treated with Y-27632 (10 μM, 24 hours) and stretch-stimulated",26%
same,decrease in the activity of ROCK1,"ROCK1; keloid fibroblasts treated with Y-27632 alone (10 μM, 24 hours, static)",10.8%
